The subject of series [1] is SKOV3 ovarian cancer cells. Kind of series: Inherent cytotoxicity (dark toxicity) in SKOV3 cells (AlamarBlue viability). It counts as cell-based, Human. The note with it: human, 24 h. On the technique in general: The colour change of resazurin is a common sign of viable cells or microbes.
For series [2], the system named is OVCAR3. Kind of series: Phototoxicity, pan-cancer panel. As to conditions: Homo sapiens, OVCAR-3, light or radiation study; OVCAR3, ovarian adenocarcinoma. Format: cell-based. The procedure:
(§1) To test for phototoxicity, cells incubated with phyllochlorin analogues (0-10 μM in DMSO) had culture media replaced after 24 hours (as above) and were then exposed to a 652 nm laser (Invion) with laser density at 50 mW/cm^2 for 5 mins (total 15 J/cm^2). Following activation, cells were cultured for a further 24 hours. Media was then replaced with fresh media containing AlamarBlue, and % viable cells remaining assessed as above. Controls included cells treated with phyllochlorin analogues but not activated by laser light; cells without phyllochlorin analogue treatment but with laser light; and untreated controls. All measurements were made in quadruplicate.
(§2) The activity of phyllochlorin analogues against multiple cancer cell types was assessed as above, using compounds 3 and 6 as examples.

For series [3], the system named is HEK293. Kind of series: Phototoxicity, pan-cancer panel. The note with it: Homo sapiens, light or radiation study; HEK293, embryonic kidney. Format: cell-based. As to the method:
as §1, §2

Series [4] relates to LP9. Kind of series: Phototoxicity, pan-cancer panel. Format: cell-based. As to conditions: light or radiation study; LP9, immortalised mesothelial cells. The procedure:
as §1, §2

Series [5] concerns MDA-MB-468. Kind of series: Phototoxicity, pan-cancer panel. It counts as cell-based. The note with it: Homo sapiens, light or radiation study; MDA-MB-468, breast adenocarcinoma (triple negative). As to the method:
as §1, §2

In series [6] the test system is HH. Briefly: Phototoxicity, pan-cancer panel. The note with it: Homo sapiens, light or radiation study, T cell lymphoma. Format: cell-based. As to the method: as §1, §2
Series [7] relates to A549. Briefly: Phototoxicity, pan-cancer panel. It counts as cell-based. As to conditions: Homo sapiens, light or radiation study; A549, lung adenocarcinoma. The procedure:
as §1, §2

The test system of series [8] is CaOV3. Kind of series: Phototoxicity, pan-cancer panel. Format: cell-based. As to conditions: Homo sapiens, Caov-3, light or radiation study; CaOV3, ovarian adenocarcinoma. The procedure: as §1, §2
In series [9] the test system is DLD-1. Briefly: Phototoxicity, pan-cancer panel. It counts as cell-based. The note with it: Homo sapiens, light or radiation study; DLD-1, colorectal adenocarcinoma. The procedure:
as §1, §2

For series [10], the system named is SKOV3 ovarian cancer cells. Briefly: Phototoxicity in SKOV3 cells (652 nm laser, AlamarBlue viability). The note with it: Homo sapiens, SK-OV-3, light or radiation study. Format: cell-based, Human. The gist of the method: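 SKOV3 cells were loaded for 24 h with photosensitizer (0–10 μM in DMSO) in medium containing 10% Kollidon-12. After a media change they were irradiated at 652 nm, 50 mW/cm^2 for 5 min (15 J/cm^2), cultured a further 24 h, and viability was read by AlamarBlue in quadruplicate. Phototoxicity IC90 and dark-toxicity IC10 came from variable-slope normalized dose–response fits.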

Series [11] can be described thus: Singlet oxygen (1O2) production rate. Format: physicochemical. An excerpt: The production of singlet oxygen (^1O2), cellular phototoxicity and light-independent cytotoxicity (“dark toxicity”) of a number of phyllochlorin analogues were compared against chlorin e4 disodium and Talaporfin sodium (mono-L-aspartyl chlorin e6), the active ingredient of Laserphyrin™.

For series [12], the system named is OVCAR3. Kind of series: Cytotoxicity, pan-cancer panel. Format: cell-based. The note with it: OVCAR3, ovarian adenocarcinoma. As to the method:
(§3) To test for inherent cytotoxicity (i.e. “dark toxicity”) of the phyllochlorin analogue the culture media was replaced after 24 hours with fresh media containing 10% (v/v) AlamarBlue Cell Viability Reagent (ThermoFisher) and cells incubated at 37° C. for 6 hours. Untreated cells were used as a control. Fluorescence (Ex 555 nm/Em 596 nm) was measured using a Cytation 3 Multimode Plate Reader (Biotek), and cytotoxicity assessed according to the % viable cells remaining. All measurements were made in quadruplicate.
as §2

The test system of series [13] is HEK293. Briefly: Cytotoxicity, pan-cancer panel. Format: cell-based. The note with it: HEK293, embryonic kidney. The procedure: as §3, §2
Series [14] relates to LP9. Briefly: Cytotoxicity, pan-cancer panel. It counts as cell-based. As to conditions: LP9, immortalised mesothelial cells. As to the method:
as §3, §2

For series [15], the system named is MDA-MB-468. Kind of series: Cytotoxicity, pan-cancer panel. Format: cell-based. The note with it: MDA-MB-468, breast adenocarcinoma (triple negative). As to the method: as §3, §2
Series [16] has as its system HH. Briefly: Cytotoxicity, pan-cancer panel. It counts as cell-based. The note with it: T cell lymphoma. The procedure:
as §3, §2

For series [17], the system named is A549. Briefly: Cytotoxicity, pan-cancer panel. Format: cell-based. As to conditions: A549, lung adenocarcinoma. As to the method:
as §3, §2

Series [18] concerns CaOV3. Briefly: Cytotoxicity, pan-cancer panel. It counts as cell-based. The note with it: CaOV3, ovarian adenocarcinoma. As to the method:
as §3, §2

For series [19], the system named is DLD-1. Kind of series: Cytotoxicity, pan-cancer panel. It counts as cell-based. As to conditions: DLD-1, colorectal adenocarcinoma. The procedure:
as §3, §2

Where two headings read alike, the source gives them in different places.

Usually IC90 stands for the concentration at which the effect reaches the 90% level.

As to `C=Cc1c(C)c2cc3nc(c(C)c4cc(C)c(cc5nc(cc1[nH]2)C(C)=C5CC)[nH]4)[C@@H](CCC(=O)NCCCS[C@@H]1O[C@H](CO)[C@@H](O)[C@H](O)[C@H]1O)[C@@H]3C` [Compound 3, 3-((7S,8S)-18-ethyl-2,5,8,12,17-pentamethyl-13-vinyl-7H,8H-porphyrin-7-yl)-N-(3-(((2S,3R,4S,5S,6R)-3,4,5-trihydroxy-6-(hydroxymethyl)tetrahydro-2H-pyran-2-yl)thio)propyl)propanamide], in series [1], the “Cellular Toxicity: Dark toxicity IC10” value amounted to 20660 nM. The “Cytotoxicity IC10” value amounted to 20660 nM in series [1]; 29970 nM in the series with OVCAR3 [12]; 8110 nM in the series on HEK293 [13]; 18010 nM with LP9 [14]; 6000 nM in the series with MDA-MB-468 [15]; 14800 nM with HH [16]. Besides, the “Cytotoxicity IC10” value worked out at 4220 nM in the series on A549 [17], 5430 nM with CaOV3 [18] and 42280 nM with DLD-1 [19]. In addition, the IC90 is 170 nM in the series with OVCAR3 [2]; 220 nM in the series on HEK293 [3]; 40 nM with LP9 [4]; 70 nM with MDA-MB-468 [5]; 110 nM in the series with HH [6]; 200 nM with A549 [7]. Moreover, the IC90 with CaOV3 [8] was 50 nM; with DLD-1 [9], 360 nM; in [10] (SKOV3, ovarian clear cell (Table 2), read-out: Phototoxicity IC90) it was 110 nM; in series [10] (SKOV3, 24 h uptake, 652 nm laser 50 mW/cm2 5 mins (15 J/cm2), viability 24 h later, read-out: Cellular Toxicity: Phototoxicity IC90), 80 nM; in series [10] (SKOV3, read-out: Phototoxicity apparent IC90) it was less than 100 nM. Further, the “Singlet Oxygen Production (slope) 1O2” value in [11] is reported as 2054.0.

For the origin of these results see patent publication US20230365577A1, “Photodynamic Therapy and Diagnosis” (RMW CHO Group Limited, priority 2020, published 2023).
